Tested on: exosomes derived from neuronal cells (SH-SY5Y)
Assay: Exosome-Aβ association kinetics on APEX (SPR) sensor functionalized with protein aggregates
Type: binding, Human
Conditions: relative to BSA controls
Procedure: Characterization of exosome-A13 association. The prepared protein aggregates (Aβ42 and BSA control) were used for surface functionalization onto the APEX sensors, via EDC/NHS coupling as previously described. Unbound protein aggregates were washed away with PBS. The amount of protein conjugated was measured from the resultant transmission spectral shifts. This information was used to determine the number of conjugated protein aggregates and their associated total protein surface area for exosome binding (see below for detailed information), so as to normalize for binding affinities. Following surface functionalization with the protein aggregates, exosomes ([…]) were introduced onto the sensors. Spectral changes were measured every 3 s for a total duration of 480 s to construct real-time kinetics sensorgrams. Exosome association kinetics and binding affinities were determined for different-sized protein aggregates.
To account for protein aggregate size differences as well as SPR-associated exponential decay of sensitivity (with increasing distance from the sensing surface), the following equation was used
S=E×∫0^2rπ[r^2−(r−z)^2]×e^(−2z/l^d^)dz […]
All protein aggregates were approximated as spheres, as supported by transmission electron micrographs (FIG. 3b, left) and their r determined from dynamic light scattering analysis. […]

“bigger Aβ42 aggregates: Aβ42 protein (rPeptide) incubated with agitation for 1 h to induce further aggregation, filtered through 0.2-μm membrane” was tested, and the “KD(small)/KD(big)” value (exosome binding data normalized to aggregate surface area) was 5.27 and the “binding affinity of the vesicles compared to the smaller Aβ42 aggregates” value (neuron-derived exosomes, normalized to aggregate surface area) was over 5 fold.
